{
  "source": "patent US8673979B2",
  "about": "“Pharmaceutical compositions for headache, migraine, nausea and emesis” (Meditor Pharmaceuticals Ltd., priority 2000, dated 2014)",
  "key": {"migraine attack": {"test_system": "migraine attack", "experiment": "Case reports: oral tablets during migraine attacks", "assay_type": "in vivo, human", "conditions": "for Side effects of past medical treatment: in vivo", "experimental": "Previous medical history: The subject is a smoking person first diagnosed as a classical migraine sufferer. Except for this they are completely healthy. Until two years ago the frequency of the migraine attacks was seven episodes per month. During the last two years they were treated with different kinds of recognized medications, with little or no success. Due to lack of response to the medical treatment during the migraine attacks, they tried alternative medicine treatments.\nFirst attack: The subject suffered an acute migraine attack that lasted 72 hours. […] On the next day the subject received a single dose of 50 mg S-ethylisothiouronium diethylphosphate (2 tablets of 25 mg each). […] Between 10 to 15 minutes following administration the pain abruptly disappeared, as did all other symptoms, which appeared during the migraine attack.\nSecond attack: (three weeks later) The second migraine attack started during the night. On the next day the subject received once again 2 tablets of S-ethylisothiouronium diethylphosphate (50 mg). This time the intake of the tablets was during the peak of the migraine attack, after having a meal. Within 20 minutes the headache was relieved, the subject was able to focus their eyesight, and the photophobia disappeared. There was a weak headache but its intensity was reduced. Three hours later the subject took two more tablets of S-ethylisothiouronium diethylphosphate (50 mg). Within 15 minutes the migraine pain disappeared.\nThird attack: (two and a half weeks after the second attack) the migraine attack started on their way to work. An hour after onset within the peak of the migraine attack, the subject received 2 tablets of S-ethylisothiouronium diethylphosphate (each of 25 mg). Drug was taken on empty stomach. Within 11 minutes the migraine symptoms disappeared.\nPrevious Medical History: The subject is a non-smoking person suffering from migraine attacks during the last two years. The frequency of the migraine attacks is once a month before the menstruation period. The pain appears in the temples, the sinuses and spreads down to the lower jaw. The duration of the photophobia was about 48 hours. So far the subject has not applied to receive specific medical treatment and used to take conventional analgesic drugs.\nFirst attack: The onset of an acute migraine attack was in the morning and the symptoms grew stronger during the day. Just before noon time the subject received one tablet of S-ethylisothiouronium diethylphosphate (25 mg). […] Two hours later the subject received 2 more tablets of S-ethylisothiouronium diethylphosphate (each of 25 mg). Ten minutes later, the migraine pain disappeared.\nSecond attack: (about four weeks after the first attack) The migraine attack started as a consequence of very hot weather conditions. The intensity of this attack was greater than the usual migraine attacks. In the morning, the subject received 2 tablets of S-ethylisothiouronium diethylphosphate (50 mg) that were taken on an empty stomach. Within 20 minutes of S-ethylisothiouronium diethylphosphate intake there was a significant relief in migraine pain. Fifteen minutes later the pain disappeared. Later that day, during the afternoon, the subject suffered a weak pain. This time the subject self administered analgesic drugs and the pain disappeared."}, "[1]": {"conditions": "therapeutic doses; cited from earlier work"}, "[2]": {"test_system": "emesis during migraine attack", "experiment": "Difetur tablets: emesis/nausea treatment during migraine attack", "assay_type": "in vivo, human", "experimental": "(§1) The purpose of following exploratory protocol is to evaluate the safety and potential efficacy of Difetur (S-ethylisothiouronium diethylphosphate) tablets, in escalating doses starting at 10 mg and up to 50 mg, in the treatment of a single acute migraine attack. The study was designed as an open study in a selected population of subjects classified according to IHS criteria as suffering from migraine headaches of moderate or severe intensity, without aura. The study was conducted according to established international criteria for evaluating safety and efficacy for migraine treatment.\n(§2) The study was performed as a 5 arm (groups) study. Only female patients classified as suffering from migraine without aura, according to IHS criteria are enrolled in the study. Each group consists of ten migraine patients who are treated during an acute migraine attack with Difetur tablets in a hospital setting. The initial dose of Difetur is 10 mg (1 tablet), consequently increasing to 20 mg, 30 mg, 40 mg, and 50 mg. The total number of patients to be enrolled is 50. The patients are hospitalized and followed for at least 4 hours to assess the safety, efficacy and possible side effects of Difetur.\n4.2 Secondary Efficacy Targets are the Reduction of Nausea, Vomiting and Light And Sound Sensitivity.\nThese are assigned for their presence, absence or disappearance as documented by the patient."}, "[3]": {"test_system": "acute migraine attack (headache)", "experiment": "Dose escalating exploratory study of Difetur tablets for acute migraine attack: headache reduction", "assay_type": "in vivo, human", "conditions": "for Percentage of Patients Benefited by Treatment: headache grade 3-4 reduced to 1-2; for Time elapsed to Effect: time after ingestion to headache grade 1-2", "experimental": "Dose escalating exploratory study on the safety and efficacy of Difetur tablets for the treatment of acute migraine attack.\nas §1, §2\nIn the first group of 10 patients each receive the initial dose of 10 mg of the study medication in a single tablet form. The dose of 50 mg is given as two tablets of 25 mg each. The tablets are individually packed in blister package, and have a label identifying the study medication as an investigational drug. Each dose in an escalating manner is given to 10 patients. The medication is swallowed with a glass of water under the supervision of an attending physician.\nHeadache severity is graded verbally in a 4-points scale: severe (grade 4), moderate (grade 3), mild (grade 2), or no pain (grade 1). Success is considered as a reduction of the headache severity from a severe or moderate headache (grade 3-4) to mild or no pain (grade 1-2)."}, "[4]": {"test_system": "acute migraine attack (headache)", "experiment": "Clinical trial of intravenous Difetur 10% solution in acute migraine attack", "assay_type": "in vivo, human", "conditions": "for Percentage of Patients Benefited by Treatment / Mean time elapsed to Effect: 0.6 mg/kg IV drip; for Mean time elapsed to Effect: to grade 1-0", "experimental": "The purpose of following exploratory protocol was to evaluate the safety and potential efficacy of Difetur 10% solution for injection, in dose 0.6 mg/kg, in treatment of a single acute migraine attack. The study was designed as an open study in a selected population of subjects classified according to IHS criteria as suffering from migraine headaches of moderate or severe intensity, without aura. The study was conducted according to established international criteria for evaluating safety and efficacy for migraine treatment.\nDifetur was presented as 10% (100 mg/mL) solution in 1 mL ampoules. It was dissolved in 100 mL of saline solution in intravenous device before treatment. The dose of Difetur was 0.6 mg/kg, given by intravenous drip during 10 min.\nHeadache severity was graded verbally on a 5-point scale: very severe (grade 4), severe (grade 3), moderate (grade 2), mild (grade 1), no pain (grade 0). Success was considered as reduction of the headache severity from very severe, severe or moderate (grade 4-2) to mild or no pain (grade 1-0)."}, "[5]": {"conditions": "Case 2, second attack, 50 mg oral, empty stomach"}},
  "data": [
    {"molecule": "CNS(=O)(=O)Cc1ccc2[nH]cc(CCN(C)C)c2c1", "note": "[Imitrex, Sumatriptan succinate, reference compound]", "values": [
      {"measurement": "Side effects of past medical treatment", "setting": "migraine attack", "value": "various strong side effects"}
    ]},
    {"molecule": "CN(C)CCc1c[nH]c2ccc(C[C@H]3COC(=O)N3)cc12", "note": "[Zomig, reference compound]", "values": [
      {"measurement": "Side effects of past medical treatment", "setting": "migraine attack", "value": "various strong side effects"}
    ]},
    {"molecule": "CN1C[C@H](C(=O)N[C@]2(C)O[C@@]3(O)[C@@H]4CCCN4C(=O)[C@H](Cc4ccccc4)N3C2=O)C=C2c3cccc4[nH]cc(c34)C[C@H]21", "note": "[ergotamine]", "values": [
      {"measurement": "Patients with nausea and vomiting", "setting": "[1]", "value": "up to 10%"}
    ]},
    {"molecule": "S-ethylisothiouronium diethylphosphate [Difetur]", "values": [
      {"measurement": "Side effects", "setting": "migraine attack; Case 1, 50 mg oral", "value": "No side effects"},
      {"measurement": "Time to headache relief", "setting": "migraine attack; Case 1, second attack, 50 mg oral, after a meal", "value": "≤ 20", "unit": "min"},
      {"measurement": "Time to disappearance of migraine pain", "setting": "migraine attack; Case 1, second attack, further 50 mg three hours later", "value": "≤ 15", "unit": "min"},
      {"measurement": "Time to disappearance of migraine symptoms", "setting": "migraine attack; Case 1, third attack, 50 mg oral, empty stomach", "value": "≤ 11", "unit": "min"},
      {"measurement": "Frequency of migraine attacks after treatment", "setting": "migraine attack; Case 1, previously seven episodes per month", "value": "about three"},
      {"measurement": "Side effects", "setting": "migraine attack; Case 2, 25 or 50 mg oral", "value": "No side effects"},
      {"measurement": "Time to disappearance of migraine pain", "setting": "migraine attack; Case 2, first attack, 2 more 25 mg tablets two hours later", "value": "Ten"},
      {"measurement": "Change in migraine pain", "setting": "migraine attack; Case 2, first attack, one 25 mg tablet", "value": "No substantial change"},
      {"measurement": "Time from significant relief to disappearance of pain", "setting": "migraine attack; [5]", "value": "Fifteen"},
      {"measurement": "Time to significant relief in migraine pain", "setting": "migraine attack; [5]", "value": "≤ 20", "unit": "min"},
      {"measurement": "Time to elimination of migraine symptoms", "setting": "migraine attack; both case reports, at peak of attack", "value": "less than 20 minutes"},
      {"measurement": "Headache recurrence (rebound/relapse)", "setting": "migraine attack; case reports", "value": "not observed"},
      {"measurement": "Percentage of Patients Affected by Treatment (positive anti-emetic response)", "setting": "[2]; 10 mg oral", "value": 70, "unit": "%"},
      {"measurement": "Time elapsed until Effect (termination of emesis)", "setting": "[2]; 10 mg oral", "value": 28, "unit": "min"},
      {"measurement": "Percentage of Patients Affected by Treatment (positive anti-emetic response)", "setting": "[2]; 20 mg oral", "value": 100, "unit": "%"},
      {"measurement": "Time elapsed until Effect (termination of emesis)", "setting": "[2]; 20 mg oral", "value": 25, "unit": "min"},
      {"measurement": "Percentage of Patients Affected by Treatment (positive anti-emetic response)", "setting": "[2]; 30 mg oral", "value": 100, "unit": "%"},
      {"measurement": "Time elapsed until Effect (termination of emesis)", "setting": "[2]; 30 mg oral", "value": 29, "unit": "min"},
      {"measurement": "Effect of low doses on nausea", "setting": "[2]; low doses ineffective or less effective on headache", "value": "effective at reducing or abolishing the symptoms of nausea"},
      {"measurement": "Percentage of Patients Benefited by Treatment", "setting": "[3]; 10 mg oral tablet", "value": 0, "unit": "%"},
      {"measurement": "Percentage of Patients Benefited by Treatment", "setting": "[3]; 20 mg oral", "value": 70, "unit": "%"},
      {"measurement": "Time elapsed to Effect", "setting": "[3]; 20 mg oral", "value": 43, "unit": "min"},
      {"measurement": "Percentage of Patients Benefited by Treatment", "setting": "[3]; 30 mg oral", "value": 70, "unit": "%"},
      {"measurement": "Time elapsed to Effect", "setting": "[3]; 30 mg oral", "value": 58, "unit": "min"},
      {"measurement": "Side effects", "setting": "[3]; clinical trials, human subjects", "value": "no side effects"},
      {"measurement": "Time to dramatic improvement", "setting": "[3]; in some cases", "value": "≤ 15", "unit": "min"},
      {"measurement": "Time to reduction of migraine symptoms, on average", "setting": "[3]; oral, at peak of migraine attack", "value": "around 45 minutes"},
      {"measurement": "Time to relief", "setting": "[3]; treatment initiated at peak of migraine attack", "value": "≤ 60", "unit": "min"},
      {"measurement": "Percentage of Patients Benefited by Treatment", "setting": "[4]; headache grade 2", "value": 87, "unit": "%"},
      {"measurement": "Mean time elapsed to Effect", "setting": "[4]; headache grade 2", "value": 13.7, "unit": "min"},
      {"measurement": "Percentage of Patients Benefited by Treatment", "setting": "[4]; headache grade 3", "value": 100, "unit": "%"},
      {"measurement": "Mean time elapsed to Effect", "setting": "[4]; headache grade 3", "value": 25.5, "unit": "min"},
      {"measurement": "Percentage of Patients Benefited by Treatment", "setting": "[4]; headache grade 4", "value": 100, "unit": "%"},
      {"measurement": "Mean time elapsed to Effect", "setting": "[4]; headache grade 4", "value": 50, "unit": "min"},
      {"measurement": "Headache relief, overall", "setting": "[4]; 0.6 mg/kg IV, 13 patients, all except one", "value": "significant headache relief"}
    ]}
  ]
}
